What was measured:
[1] = molecular target: T1, AasS (Vibrio harveyi, UniProt Q00IB3); assay: cryo-EM structure; type: binding; settings: 2 mM MgCl2, 5 mM AMP-PNP; tetramer; ATP site
T1 sequence (Q00IB3 1-533): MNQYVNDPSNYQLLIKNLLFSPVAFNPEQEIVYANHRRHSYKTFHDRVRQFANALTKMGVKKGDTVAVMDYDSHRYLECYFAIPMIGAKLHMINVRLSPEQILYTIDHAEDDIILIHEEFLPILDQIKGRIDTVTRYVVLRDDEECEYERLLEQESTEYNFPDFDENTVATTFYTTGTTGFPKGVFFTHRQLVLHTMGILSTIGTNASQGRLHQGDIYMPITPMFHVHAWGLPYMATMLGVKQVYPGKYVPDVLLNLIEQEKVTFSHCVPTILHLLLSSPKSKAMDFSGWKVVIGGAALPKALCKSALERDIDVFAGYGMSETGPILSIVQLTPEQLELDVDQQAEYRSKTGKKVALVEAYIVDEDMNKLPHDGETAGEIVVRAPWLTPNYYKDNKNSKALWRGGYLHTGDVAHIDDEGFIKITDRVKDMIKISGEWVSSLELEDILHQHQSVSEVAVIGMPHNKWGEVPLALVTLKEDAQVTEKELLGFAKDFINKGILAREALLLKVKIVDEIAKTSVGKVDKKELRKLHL

[2] = molecular target: T1, AasS; assay: cryo-EM structure; type: binding; settings: 1.5 mM ATP, no Mg2+; hexamer; phosphate density not continuous
[3] = molecular target: T1, AasS; assay: ITC, one set of sites; type: binding
[4] = molecular target: the molecule itself; assay: SEC

Molecule: Nc1ncnc2c1ncn2[C@@H]1O[C@H](COP(=O)(O)OP(=O)(O)NP(=O)(O)O)[C@@H](O)[C@H]1O [AMP-PNP]
- cryo-EM structure (2.68 Å) [1]: continuous density for the bound AMP-PNP cofactor

Molecule: Nc1ncnc2c1ncn2[C@@H]1O[C@H](COP(=O)(O)OP(=O)(O)OP(=O)(O)O)[C@@H](O)[C@H]1O [ATP]
- cryo-EM structure (2.45 Å) [2]: the cryo-EM structure of ATP-liganded AasS remains a hexamer ring

Molecule: CCOC(=O)CCCCCC(=O)O [E-pim]
- Kd [3]: ~6.45 µM

B1: Vibrio harveyi acyl-ACP synthetase AasS, recombinant with an N-terminal 6xHis-tag (enzyme, UniProt Q00IB3 1-533, looked up)
chain: MNQYVNDPSNYQLLIKNLLFSPVAFNPEQEIVYANHRRHSYKTFHDRVRQFANALTKMGVKKGDTVAVMDYDSHRYLECYFAIPMIGAKLHMINVRLSPEQILYTIDHAEDDIILIHEEFLPILDQIKGRIDTVTRYVVLRDDEECEYERLLEQESTEYNFPDFDENTVATTFYTTGTTGFPKGVFFTHRQLVLHTMGILSTIGTNASQGRLHQGDIYMPITPMFHVHAWGLPYMATMLGVKQVYPGKYVPDVLLNLIEQEKVTFSHCVPTILHLLLSSPKSKAMDFSGWKVVIGGAALPKALCKSALERDIDVFAGYGMSETGPILSIVQLTPEQLELDVDQQAEYRSKTGKKVALVEAYIVDEDMNKLPHDGETAGEIVVRAPWLTPNYYKDNKNSKALWRGGYLHTGDVAHIDDEGFIKITDRVKDMIKISGEWVSSLELEDILHQHQSVSEVAVIGMPHNKWGEVPLALVTLKEDAQVTEKELLGFAKDFINKGILAREALLLKVKIVDEIAKTSVGKVDKKELRKLHL
- stoichiometry N [4]: 6

Reference: publication PMC12086093 (Nature Structural & Molecular Biology, 2025)
